One data set deals with HIV-1HxBc2. Kind of data set: microbe, parasite or virus in culture. The class given is cell-based.
The subject of data set [1] is HIV-1 91US004 (subtype B). Kind of data set: HIV-1 replication assay in primary human PBMCs, isolate 91US004. The format is cell-based.
The subject of data set [2] is HIV-1 94US_3393IN (subtype B). Kind of data set: HIV-1 replication assay in primary human PBMCs, isolate 94US_3393IN.
For data set [3], the system named is HIV-1 99UG_A07412M1 (subtype D). Kind of data set: HIV-1 replication assay in primary human PBMCs, isolate 99UG_A07412M1. The format is cell-based.
The next data set concerns HIV-1JR-CSF. Put plainly: microbe, parasite or virus in culture. The class given is cell-based. Conditions: Human immunodeficiency virus 1, read-out: IC50 JR-CSF.
The subject of another data set is HIV-2 CDC310319. Kind of data set: Replication assay in primary human PBMCs, HIV-2 isolate. The class given is cell-based.
Data set [4] relates to HIV-1 98US_MSC5016 (subtype C). Put plainly: HIV-1 replication assay in primary human PBMCs, isolate 98US_MSC5016. The format is cell-based.
In data set [5] the test system is HIV-1 92UG037 (subtype A). Put plainly: HIV-1 replication assay in primary human PBMCs, isolate 92UG037. The class given is cell-based.
A further data set is described as follows: in vitro. The format is cell-based. Conditions: human. How it is done: Moreover, this assay was performed using healthy, primary cells to gain further insight into potential toxicities of the compound towards natural target cells. Additionally, as a key issue in the development of novel HIV drugs is their ability to inhibit the replication of genetically diverse isolates (especially isolates from the most globally prevalent subtypes A, B, C, and D), it was chosen to assess the potency of SC26 to inhibit the replication of isolates from subtypes A, B, C, and D in primary human peripheral blood mononuclear cells (PBMCs). Concomitantly, toxicity of SC26 to the PBMCs was assessed using an MTT assay. As can be observed from the IC50 values, the potency of SC26 against different isolates ranges quite dramatically, most likely reflecting differences in the binding site between subtypes.

[6] abbreviates: Human immunodeficiency virus 1, PBMC, human PBMCs.

Like-named read-outs stand apart in the source and are kept apart here. Where only a bound is given, the exact number is not on record here.

Consider `COc1cnc(-n2cnc(C)n2)c2[nH]cc(C(=O)C(=O)N3CC4CN(C(=O)C5=CCCCC5)CC4C3)c12` (stereo not drawn) [SC26, 1-(5-(cyclohex-1-ene-1-carbonyl)hexahydropyrrolo[3,4-c]pyrrol-2(1H)-yl)-2-(4-methoxy-7-(3-methyl-1H-1,2,4-triazol-1-yl)-1H-pyrrolo[2,3-c]pyridin-3-yl)ethane-1,2-dione], for which the IC50 in the data set on HIV-1HxBc2 (Human immunodeficiency virus 1) was 0.6 ± 0.01 nM; in the data set on HIV-1HxBc2 (Human immunodeficiency virus 1, read-out: IC50 HxBc2), 0.6 ± 0.08 nM; in data set [1] (setting [6]), 195 ± 12 nM; in data set [3] (setting [6]), 490 ± 60 nM; in the data set with HIV-1JR-CSF it was 2 ± 0.1 nM; in the data set on HIV-2 CDC310319 (Human immunodeficiency virus 2, PBMC, HIV-2 CDC310319, human PBMCs), more than 100000 nM. In addition, the results for the IC50 in [4] (setting [6]) and in data set [5] (setting [6]) were 3900 ± 800 nM and 25200 ± 6900 nM, respectively. Moreover, the “Antiviral index (TC50/IC50)” value in data set [1] was more than 513; in data set [2], >166,666; in data set [3], more than 204; in [4], more than 25.6; in [5], more than 3.97. For the same molecule, in the data set with HIV-2 CDC310319 (human PBMCs, in words), the “effect on the replication of an HIV-2 isolate” value is reported as “no effect”. Besides, the CC50 at 7 days in the data set “in vitro” is more than 100000 nM.

One may read the IC50 as the concentration that gives 50% inhibition. What is called CC50 is the concentration that lowers cell viability or growth by half. Low readings indicate greater toxicity to the cells, high ones lower toxicity to the cells.

The values above are taken from US9920073B2, “Compositions useful for inhibiting HIV-1 infection and methods using same” (Drexel University, priority 2013, dated 2018).
